Data set [1] can be described thus: In vitro release of leuprolide in PBS at pH 7.4 at 37° C. (HPLC). The conditions noted are these: for release of leuprolide completed: Example 5, FIG. 3, PLA 16,000 Dalton 60% in NMP, about 12% leuprolide, gamma 25 kGy. It counts as physicochemical. Here is the method:
The product is supplied in 2 separate syringes with the leuprolide acetate in one syringe and the polymer solution in the other. The two are mixed immediately prior to injection. The polymer solution contains a 50% 8515PLGA polymer solution in NMP. The molecular weight of the polymer is about 20k dalton. […] The leuprolide mesylate was prepared from leuprolide acetate by ion exchange lyophilization process and contains a small amount of acetate. The formulation was mixed and stored in a single syringe. Another formulation was made with LAMS using a PLA polymer with a molecular weight of 15k dalton (PLA-1) and a polydispersity index (PDI) of 1.8. This formulation was also mixed and stored in a single syringe. […] The release sample was taken at predefined time points and analyzed by HPLC.
The in vitro release of leuprolide was tested from these two formulations. The in vitro release test was performed in PBS at pH 7.4 at 37° C. and the release of leuprolide over time was measured by HPLC. Briefly, an aliquot of the formulation (about 100 mg) was injected into 3 mL phosphate buffer saline solution at pH 7.4 with 0.1% sodium azide at 37° C. The receiving fluid was replaced at predefined time points with fresh buffer solution, and the removed buffer solution diluted 2-fold with phosphate buffer at pH 7.4 was analyzed for drug concentration by HPLC. The amount released at each time point was calculated.
The in vitro release of leuprolide was tested from several kits of Eligard® 45 mg. These kits contain 1 syringe with leuprolide acetate (LAAc) and one syringe of polymer solution (PLGA8515 in NMP). PLGA8515 used here was prepared with hexanediol as an initiator and has a molar ratio of DL-lactide to Glycolide=85:15. The PLGA8515 polymer has one hydroxyl end group at both ends of the polymer chain. The two syringes are connected and the contents are mixed immediately prior to injection.
Formulations were made with leuprolide mesylate (LAMS(1.6)) in order to achieve the delivery of leuprolide for a period of 3 months. The leuprolide mesylate was prepared from leuprolide formate by salt exchange lyophilization process and contains a small amount of formic acid. […] The removed release media was analyzed by HPLC for leuprolide content.
The in vitro release of leuprolide was tested from these two formulations. The in vitro release test was performed in PBS at pH 7.4 at 37° C. and the release of leuprolide was measured by HPLC over time. […]
Formulations designed for a release duration of one month were made with a 50:50PLGA polymer (MW 50k, PDI 4.0) in NMP using LAMS with a methane sulfonic acid to leuprolide ratio of 1.6:1 and 2.0:1. The formulations were stored at 25° C. and the peptide purity and polymer molecular weight were measured over time. […]

The conditions of data set [2]: for molecular weight of PLGA compared with blank control: both 4° C. and RT, after 12 months.
Protocol: Poly(DL-lactide-co-glycolide) (PLGA) of an 85/15 ratio of lactide to glycolide (DLPLG85/15, IV: 0.28) with a lauryl ester end group was dissolved in N-methyl-2-pyrrolidone (NMP) to give a 50% solution by weight. […] The injectable compositions were filled into 1.2 mL polypropylene syringes with luer-lock tips. Then the pre-filled syringes were sealed using luer-lock caps. The capped syringes were packaged in a container and sealed in a plastic bag under vacuum and then stored at 4° C. and room temperature (˜22° C.) for up to 18 months. The injectable composition was sampled at 24 h, 1, 2, 3, 6, 12, and 18-month time points. Purity of leuprolide in the sample was determined by HPLC. Molecular weight of the polymer was determined by gel permeation chromatography (GPC) using polystyrene standards with known molecular weights.

Where a name gives a salt, the structure may show the parent alone.

Take leuprolide mesylate: the “release of leuprolide completed” value in data set [1] is around 180 days. Moreover, the leuprolide released in data set [1] (Example 6, FIG. 4, polymer syringe from the Eligard 45 mg kit, at 112 days) is above 99. Also, in data set [2], the “molecular weight of PLGA compared with blank control” value was “the same as that of the blank control”.
In the case of `CCNC(=O)[C@@H]1CCCN1C(=O)[C@H](CCCNC(=N)N)NC(=O)[C@H](CC(C)C)NC(=O)[C@@H](CC(C)C)NC(=O)[C@H](Cc1ccc(O)cc1)NC(=O)[C@H](CO)NC(=O)[C@H](Cc1c[nH]c2ccccc12)NC(=O)[C@H](Cc1c[nH]cn1)NC(=O)[C@@H]1CCC(=O)N1` [leuprolide acetate, reference compound], in data set [1], the “release of leuprolide completed” value was around 240 days. Further, the “in vitro release lasts longer versus leuprolide mesylate” value in data set [1] (Example 5, same PLA/NMP solution) is reported as “more than 60 days”. For the same compound, the “molecular weight of PLGA decreased, comparing to blank control” value in data set [2] (4° C., after 6 months) is recorded as “more than 10%”.
Consider `CCNC(=O)[C@@H]1CCCN1C(=O)[C@H](CCCNC(=N)N)NC(=O)[C@H](CC(C)C)NC(=O)[C@@H](CC(C)C)NC(=O)[C@H](Cc1ccc(O)cc1)NC(=O)[C@H](CO)NC(=O)[C@H](Cc1c[nH]c2ccccc12)NC(=O)[C@H](Cc1c[nH]cn1)NC(=O)[C@@H]1CCC(=O)N1` [leuprolide hydrochloride], for which the “molecular weight of PLGA compared with blank control” value in data set [2] was “the same as that of the blank control”.
